Experimental findings from patent US5624924A, “Quinobenzothiazine antineoplastic agents” (priority 1994, dated 1997) are described below.

Structures can show the parent of a compound that is named as a salt. Where two headings read alike, the source gives them in different places.

In series [1] the test system is P388-D1 mouse leukemia cell line. As to the kind of experiment: In vitro cytotoxicity (MTT), P388-D1. Format: cell-based. The settings on record: for IC50: Mus musculus, P388D1, 72 h, read-out: In Vitro Cytotoxicity (IC50), P388-D1. As for the experimental part:
(§1) Metabolic activity was measured by the cells' ability to reduce the tetrazolium dye, 3-(4,5-dimethylthiazol-2-yl)-2,5-diphenyltetrazolium bromide (MTT), to a quantifiable colored formasan derivative. Surviving cells reduce the MTT dye. The inhibitory concentrations of killing 50% of the cells (IC50 s) were calculated. Testing was in accord with the following protocol:
(§2) Test compounds and a reference antineoplastic agent, ADRIAMYCIN (doxorubicin hydrochloride), were dissolved in dimethyl sulfoxide (DMSO) and diluted, first with Earle's Balanced Salt Solution, followed by culture medium, to twice the highest concentration of the compound to be tested. From this concentrated stock, two-fold serial dilutions were prepared in 96-well microtiter trays, each well containing twice the desired final concentration of the compound. Each concentration was tested in triplicate and compared to triplicate drug-free controls.
(§3) The cells were grown in the same medium used for diluting the compounds. Adherent cells were harvested by trypsinization according to the following procedure:
(§4) After harvesting by trypsinization, viable cell counts were determined and cell density was adjusted to 25,000 cells/mL. Inoculum (0.1 mL) was then added to each well for a final concentration of 2,500 cells per well. Addition of the inoculum was used to dilute the test compounds to the desired concentration.
(§5) Microtiter trays were incubated for three days at 36° C. in a humidified atmosphere containing 5% carbon dioxide.
After three days, 20 microliters of 5 mg/mL MTT in phosphate-buffered solution were added to each well of the microtiter trays. The microtiter trays were then returned to the incubator for two to four hours to allow the surviving cells to reduce the dye. After this incubation, both the medium and the unreduced dye were removed by aspiration. DMSO was added to each well to dissolve the water-insoluble, colored end product of the dye reduction for spectrophotometric measurement at 570 nm.
The results obtained which clearly show the cytotoxicity of the compounds of Examples 5, 6, 7 and 8 against […] tumor cell lines A549, HCT-8, HT-29 and P388-D1, are illustrated in Table 1. (A549 is a human lung cancer cell line; HCT-8 is a human colon cancer cell line; HT-29 is a human colon cancer cell line; and P388-D1 is a mouse leukemia cell line.)

Series [2] has as its system P388-ADR(0.1), ADRIAMYCIN-resistant variant of P388. As to the kind of experiment: In vitro cytotoxicity (MTT), P388-ADR(0.1). Type of series: cell-based. The settings on record: Mus musculus, 72 h, inoculum grown with 0.1 mcg.ml ADRIAMYCIN, Table 2, ADR value marked *: single test. The protocol: as §1, §2, §3, §4, §5
After three days, 20 microliters of 5 mg/mL MTT in phosphate-buffered solution were added to each well of the microtiter trays. The microtiter trays were then returned to the incubator for two to four hours to allow the surviving cells to reduce the dye. After this incubation, both the medium and the unreduced dye were removed by aspiration. DMSO was added to each well to dissolve the water-insoluble, colored end product of the dye reduction for spectrophotometric measurement at 570 nm. […]

Series [3] relates to P388-ADR(0.0), ADRIAMYCIN-resistant variant of P388. As to the kind of experiment: In vitro cytotoxicity (MTT), P388-ADR(0.0). The settings on record: Mus musculus, 72 h, inoculum grown in drug-free medium, Table 2. Type of series: cell-based. In outline: (§6)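 Cells seeded at 2,500 per well with two-fold compound dilutions, in triplicate, and incubated 3 days at 36 °C in 5% CO2. The P388-ADR(0.1) inoculum is grown in 0.1 mcg.ml ADRIAMYCIN, the (0.0) inoculum drug-free. MTT reduction read at 570 nm after DMSO solubilisation; IC50 calculated.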

For series [4], the system named is P388 mouse leukemia cell line. Kind of series: In vitro cytotoxicity (MTT), P388. Format: cell-based. As to conditions: P388, 72 h, read-out: In Vitro Cytotoxicity (IC50). Put shortly: as §6
The subject of series [5] is HCT-8 human colon cancer cell line. Kind of series: In vitro cytotoxicity (MTT), HCT-8. Format: cell-based. The settings on record: HCT-8, 72 h, read-out: In Vitro Cytotoxicity (IC50). The protocol:
as §1, §2, §3
After harvesting by trypsinization, viable cell counts were determined and cell density was adjusted to 25,000 cells/mL. Inoculum (0.1 mL) was then added to each well for a final concentration of 2,500 cells per well. Addition of the inoculum was used to dilute the test compounds to the desired concentration. […]

The subject of series [6] is A549 human lung cancer cell line. As to the kind of experiment: In vitro cytotoxicity (MTT), A549. Type of series: cell-based. As to conditions: A549, 72 h. Put shortly: (§7)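 Cells at 2,500 per well were exposed to two-fold serial compound dilutions in triplicate for three days at 36° C under 5% CO2, with doxorubicin as reference. MTT was added for 2–4 h, and the formazan was dissolved in DMSO and read at 570 nm. IC50 is the concentration killing 50% of cells relative to drug-free controls.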

Another series relates to B16F10 mouse melanoma. As to the kind of experiment: In vitro cytotoxicity (MTT), B16F10. Type of series: cell-based. As to conditions: B16-F10, 72 h, read-out: In Vitro Cytotoxicity (IC50).
The test system of series [7] is HT-29 human colon cancer cell line. Kind of series: In vitro cytotoxicity (MTT), HT-29. Type of series: cell-based. The settings on record: HT-29, 72 h. In outline:
as §7

For another series, the system named is P388 ascitic leukemia. Kind of series: In vivo activity against systemic tumor P388. More on the design: species or system mouse. The settings on record: five days. As for the experimental part: Prior to testing, P388 was propagated intraperitoneally in female DBA2 mice. The ascitic tumors were intraperitoneally injected in female B6 D2 F1 mice at a concentration of 10^6 cells per mouse. The mice were treated with antiumor agents administered once daily for five consecutive days, with the antineoplastic 5-fluorouracil used as a positive control.
All drugs were administered intraperitoneally in 5% aqueous dextrose or other suitable diluent. Drug efficacy was evaluated based on prolongation of mean survival time (MST). Improvement of MST was calculated as % MST(T/C), the percent ratio of mean survival times of test (T) versus control (C) mice. Compounds having % MST(T/C) values greater than 125 are considered to have significant activity. The antitumor activity of the two compounds in the P388 systemic leukemia model is illustrated in Table 3 below.

In a further series the test system is M5076 ovarian sarcoma. As to the kind of experiment: In vivo activity against M5076 ovarian sarcoma implanted subcutaneously. The settings on record: IP every 2 days, days 1-11. More on the design: species or system mouse. The protocol:
For M5076 ovarian sarcoma, the solid tumor was implanted subcutaneously into mice on day 0. The compound to be tested (the compound of Example 8) was administered IP every 2 days up to day 11, starting on day 1. Both % MST(T/C) and % MTM(T/C) values were calculated, and are presented below.

Series [8] deals with C-26 colon adenocarcinoma. As to the kind of experiment: In vivo activity against C-26 colon adenocarcinoma implanted IP (Example 42). More on the design: species or system mouse. The settings on record: dose 40, IP days 1, 5, 9. The protocol:
In the case of C-26 colon adenocarcinema, the tumor was implanted IP into mice on day 0. The compound to be tested. (the compound of Example 8) was administered IP at days 1, 5, and 9 and the results recorded on day 60. % MST(T/C) values were calculated as before and are shown below for two separate trials.

The nature of a further series: Aqueous solubility. Type of series: physicochemical. As to conditions: water. An excerpt:
The effect of peptidyl substitution on the solubility of the compounds of the invention was examined by dissolving samples thereof in water.

Where [9] appears, read: Table 2, ADR value marked *: single test.
Setting [10] is: read-out: In Vitro Cytotoxicity (IC50), A549, Table 2, ADR: average of two tests.
The mark [11] stands for this setting: read-out: In Vitro Cytotoxicity (IC50), HT-29, Table 2, ADR: average of two tests.
Where [12] appears, read: read-out: In Vitro Cytotoxicity (IC50), A549, Table 1, three day MTT assay.

As a reminder, the IC50 is the concentration that gives 50% inhibition. With `COc1cccc2c1C(=O)c1c(O)c3c(c(O)c1C2=O)C[C@@](O)(C(=O)CO)C[C@@H]3O[C@H]1C[C@H](N)[C@H](O)[C@H](C)O1` [ADR, doxorubicin hydrochloride, reference compound], the IC50 in series [1] (Table 1, three day MTT assay) turned out to be 0.016 µg/mL; in [1] (setting [9]) it was 0.025 µg/mL; in [2], 1.9 µg/mL; in [3] it was 2.59 µg/mL; in [4], 0.0022 µg/mL; in series [5], 0.038 µg/mL. Also, the figures for the half-maximal inhibitory concentration (IC50) (in [6] (setting [10]); with B16F10 mouse melanoma; in series [7] (setting [11])) were 0.313 µg/mL, 0.005 µg/mL and 0.285 µg/mL, respectively. The “In Vitro Cytotoxicity (IC50)” value in series [1] (P388-D1, Table 1, three day MTT assay, 4320 min, hydrochloride) worked out at 0.010.

For `Cc1ccc2c(c1)Oc1c(N3CCC(N)C3)c(F)cc3c(=O)c(C(=O)O)cn-2c13` (stereo not shown) [Example 6, 1-(3-aminopyrrolidin-1-yl)-2-fluoro-9-methyl-4-oxo-4H-quino[2,3,4-i,j][1,4]benzoxazine-5-carboxylic acid hydrochloride], the IC50 in series [1] (Table 1, three day MTT assay) stood at 0.067 µg/mL; in [1] (setting [9]) it was 0.08 µg/mL; in series [2], 0.2 µg/mL; in series [3], 0.2 µg/mL; in series [4] it was 0.071 µg/mL; in series [6] (setting [12]) it was 0.13 µg/mL. For the same molecule, the IC50 in [6] (setting [10]) came out at 0.23 µg/mL; in the series on B16F10 mouse melanoma, 0.056 µg/mL; in series [7] (read-out: In Vitro Cytotoxicity (IC50), HT-29, Table 1, three day MTT assay), 0.049 µg/mL; in [7] (setting [11]), 0.076 µg/mL.

In general, solubility refers to the concentration that dissolves in the medium under given conditions. Higher therefore signals a readily soluble substance. `CCC[C@H](N)C(=O)NC1CCN(c2c(F)cc3c(=O)c(C(=O)O)cn4c3c2Oc2ccccc2-4)C1` (stereo partly shown) [Example 8, 1-(3-norvalylaminopyrrolidin-1-yl)-2-fluoro-4-oxo-4H-quino[2,3,4-i,j][1,4]benzoxazine-5-carboxylic acid hydrochloride]: the IC50 in series [1] (Table 1, three day MTT assay) is < 0.05 µg/mL; in series [3], 0.394 µg/mL; in [4], 0.0395 µg/mL; in series [5], 0.075 µg/mL; in series [6] (setting [12]), 0.512 µg/mL; in series [6] (setting [10]), 0.591 µg/mL. In addition, the IC50 was 0.0271 µg/mL with B16F10 mouse melanoma and 0.195 µg/mL in series [7] (setting [11]). Also, the “% MST(T/C)” value in the series on P388 ascitic leukemia (3.9 mg/kg IP once daily) was 177.3%; in the series on P388 ascitic leukemia (7.81 mg/kg IP once daily), 200.0%; with P388 ascitic leukemia (15.62 mg/kg IP once daily), 209.1%; with P388 ascitic leukemia (31.25 mg/kg IP once daily), 63.6%. Moreover, the “M5706 % MST(T/C)” value in the series on M5076 ovarian sarcoma (dose 5) came to 148.4%; in the series on M5076 ovarian sarcoma (dose 10), 154.4%; with M5076 ovarian sarcoma (dose 20), 138.1%; with M5076 ovarian sarcoma (dose 40), 39.1%. For the same molecule, the M5706 % MTM(T/C) amounted to 62% with M5076 ovarian sarcoma (dose 5), 49% in the series with M5076 ovarian sarcoma (dose 10) and 22% in the series on M5076 ovarian sarcoma (dose 20). The “C-26 % MST(T/C)” value is 52.3% in [8] (first trial) and 43.9% in series [8] (second trial). The solubility in the series “Aqueous solubility” amounted to 10.7 mg/mL.

As to `Cc1ccc2c(c1)Oc1c(N3CCC(NC(=O)[C@H](C)N)C3)c(F)cc3c(=O)c(C(=O)O)cn-2c13` (stereo partly shown) [Example 9, 1-(3-alanylaminopyrrolidin-1-yl)-2-fluoro-9-methyl-4-oxo-4H-quino[2,3,4-i,j][1,4]benzoxazine-5-carboxylic acid hydrochloride], the IC50 in series [1] (setting [9]) worked out at 0.081 µg/mL; in series [2], 0.18 µg/mL; in series [3], 0.19 µg/mL; in [4] it was 0.062 µg/mL; in [6] (setting [10]), 0.23 µg/mL; in the series on B16F10 mouse melanoma, 0.048 µg/mL. Further, the IC50 in series [7] (setting [11]) stood at 0.075 µg/mL.
